Laboratory results: patent EP0056152B1, “Process for the after-treatment of linen” (Henkel Kommanditgesellschaft auf Aktien, priority 1981, dated 1982)
Like-named read-outs stand apart in the source and are kept apart here.

Columns and labels:
Experiment in all cases: Agar plate test with treated textile pieces (inhibition zone)
Assay type in all cases: cell-based
[1] = test system: Trichophyton mentagrophytes; details: 30°C; for zone of inhibition at 1000 µg/mL: azole 1 g/l in liquor with 3 g/l fabric softener; for zone of inhibition at 100 µg/mL: azole 0,1 g/l in liquor with 3 g/l fabric softener; for zone of inhibition at 200 µg/mL: azole 0,2 g/l in liquor with 3 g/l fabric softener
Protocol: (§1) Zur Prüfung der antimikrobiellen Wirksamkeit wurde die erfindungsgemäße Ausrüstung der Textilien wie folgt vorgenommen: • 2 x 2 cm große Textilstücke aus Baumwollköper (BW), Wolle (WO) und Nylon (NY) wurden in einer Behandlungsflotte von 20°C 10 Minuten lang bewegt und anschließend bei Raumtemperatur getrocknet. Der Behandlungsflotte waren verschiedene Azolverbindungen in unterschiedlicher Konzentration (s. Tabelle) und 3 g pro 1 Waschflotte eines handelsüblichen Wäscheweichspülmittels mit einem Gehalt an 5 Gew.-% Dimethyl-ditalgalkyl-ammoniumchlorid als textilweichmachender quartärer Ammoniumverbindung zugesetzt. Die Textilproben wurden auf mit unterschiedlichen Testkeimen beimpfte Agarplatten aufgelegt, bis zum Eintritt eines vollen Wachstums bei 30°C bebrütet und dann die antimikrobiellen Effekte abgelesen. Dabei bedeuten: • + = volles Wachstum • 0 = kein Hemmhof, kein Wachstum auf den Läppchen • Zahl = Hemmhof in mm um das Gewebe • (Zahl) = Größe des Hemmhofes mit diffuser Begrenzung in mm.
Zum Vergleich wurde die antimikrobielle Wirkung eines azolverbindungsfreien Wäschenachbehandlungsmittels geprüft. Die Ergebnisse sind in der folgenden Tabelle aufgeführt:
(§2) In einer weiteren Versuchsreihe wurden andere Azolverbindungen bei einer Anwendungskonzentration von 1 g/I Behandlungsflotte gemeinsam mit dem Wäschebehandlungsmittel der Beispiele 1 bis 7 (Konzentration 3 g/I Behandlungsflotte) eingesetzt. Auch hier wurde ein Vergleichsversuch ohne Azolverbindung durchgeführt.

[2] = test system: Epidermophyton floccosum; details: azole 1 g/l in liquor with 3 g/l fabric softener, 30°C
Protocol: as §1, §2

[3] = test system: Microsporum gypseum; details: Nannizzia gypsea, 30°C, read-out: Hemmhof in mm um das Gewebe; for zone of inhibition at 100 µg/mL: azole 0,1 g/l in liquor with 3 g/l fabric softener; for zone of inhibition at 200 µg/mL: azole 0,2 g/l in liquor with 3 g/l fabric softener
Protocol: as §1
(§3) Zum Vergleich wurde die antimikrobielle Wirkung eines azolverbindungsfreien Wäschenachbehandlungsmittels geprüft. Die Ergebnisse sind in der folgenden Tabelle aufgeführt: […]

[4] = test system: Trichophyton rubrum; details: 30°C, read-out: Hemmhof in mm um das Gewebe; for zone of inhibition at 100 µg/mL: azole 0,1 g/l in liquor with 3 g/l fabric softener; for zone of inhibition at 200 µg/mL: azole 0,2 g/l in liquor with 3 g/l fabric softener
Protocol: as §1, §3

[5] = BW (Baumwollköper), read-out: Hemmhof in mm um das Gewebe
[6] = NY (Nylon), read-out: Hemmhof in mm um das Gewebe
[7] = WO (Wolle), read-out: Hemmhof in mm um das Gewebe
[8] = value in brackets, BW (Baumwollköper), read-out: Größe des Hemmhofes mit diffuser Begrenzung in mm
[9] = value in brackets, NY (Nylon), read-out: Größe des Hemmhofes mit diffuser Begrenzung in mm
[10] = value in brackets, WO (Wolle), read-out: Größe des Hemmhofes mit diffuser Begrenzung in mm

| Compound | zone of inhibition at 1000 µg/mL [1, 5] | zone of inhibition at 1000 µg/mL [1, 6] | zone of inhibition at 1000 µg/mL [1, 7] | zone of inhibition at 1000 µg/mL [1, 8] | zone of inhibition at 1000 µg/mL [1, 10] | zone of inhibition at 1000 µg/mL [2, 5] | zone of inhibition at 1000 µg/mL [2, 7] | zone of inhibition at 1000 µg/mL [2, 9] | zone of inhibition at 100 µg/mL [1, 5] | zone of inhibition at 200 µg/mL [1, 5] | zone of inhibition at 100 µg/mL [1, 6] | zone of inhibition at 200 µg/mL [1, 6] | zone of inhibition at 100 µg/mL [1, 7] | zone of inhibition at 200 µg/mL [1, 7] | zone of inhibition at 100 µg/mL ([3]; BW (Baumwollköper)) | zone of inhibition at 200 µg/mL ([3]; BW (Baumwollköper)) | zone of inhibition at 100 µg/mL ([3]; NY (Nylon)) | zone of inhibition at 200 µg/mL ([3]; NY (Nylon)) | zone of inhibition at 100 µg/mL ([3]; WO (Wolle)) | zone of inhibition at 200 µg/mL ([3]; WO (Wolle)) | other results |
| --- | --- | --- | --- | --- | --- | --- | --- | --- | --- | --- | --- | --- | --- | --- | --- | --- | --- | --- | --- | --- | --- |
| C#CC(c1ccccc1)(c1ccccc1)n1ccnc1 [compound 001] | 15 mm | 9 mm | 17 mm | 20 mm | 20 mm | 21 mm | 21 mm | 12 mm |  |  |  |  |  |  |  |  |  |  |  |  | zone of inhibition at 1000 µg/mL [1, 9]: 12 mm; zone of inhibition at 1000 µg/mL [2, 6]: 7 mm |
| CC(C)(C)C(=O)C(Oc1ccc(Cl)cc1)n1ccnc1 (centres unmarked) [compound 003] | 5 mm | 0.5 mm | 9 mm | 10 mm | 16 mm | 3 mm | 10 mm | 0.5 mm |  |  |  |  |  |  |  |  |  |  |  |  | zone of inhibition at 1000 µg/mL [2, 8]: 9 mm; zone of inhibition at 1000 µg/mL [2, 10]: 17 mm |
| Cc1ccccc1C1(n2ccnc2)c2ccccc2-c2ccccc21 [compound 009] | 7 mm | 10 mm | 9 mm | 10 mm | 14 mm | 10 mm | 11 mm | 10 mm |  |  |  |  |  |  |  |  |  |  |  |  | zone of inhibition at 1000 µg/mL [1, 9]: 14 mm; zone of inhibition at 1000 µg/mL [2, 6]: 5 mm; zone of inhibition at 1000 µg/mL [2, 8]: 13 mm; zone of inhibition at 1000 µg/mL [2, 10]: 17 mm |
| O=[N+]([O-])CC(c1c(Cl)cccc1Cl)n1cncn1 (centres unmarked) [compound 045] |  |  |  |  |  |  |  |  | 11 mm | 16 mm | 8 mm | 12 mm | 8 mm | 11 mm | 10 mm | 20 mm | 7 mm | 14 mm | 10 mm | 12 mm | zone of inhibition at 100 µg/mL ([4]; BW (Baumwollköper)): 12 mm; zone of inhibition at 200 µg/mL ([4]; BW (Baumwollköper)): 25 mm; zone of inhibition at 100 µg/mL ([4]; NY (Nylon)): 7 mm; zone of inhibition at 200 µg/mL ([4]; NY (Nylon)): 7 mm; zone of inhibition at 100 µg/mL ([4]; WO (Wolle)): 10 mm; zone of inhibition at 200 µg/mL ([4]; WO (Wolle)): 18 mm |
| O=[N+]([O-])CC(c1c(Cl)cccc1Cl)n1cnc(Cl)n1 (centres unmarked) [compound 046] |  |  |  |  |  |  |  |  | 7 mm | 13 mm | 5 mm | 10 mm | 13 mm | 13 mm | 14 mm | 16 mm | 8 mm | 10 mm | 8 mm | 10 mm | zone of inhibition at 100 µg/mL ([4]; BW (Baumwollköper)): 9 mm; zone of inhibition at 200 µg/mL ([4]; BW (Baumwollköper)): 12 mm; zone of inhibition at 100 µg/mL ([4]; NY (Nylon)): 4 mm; zone of inhibition at 200 µg/mL ([4]; NY (Nylon)): 7 mm; zone of inhibition at 100 µg/mL ([4]; WO (Wolle)): 13 mm; zone of inhibition at 200 µg/mL ([4]; WO (Wolle)): 7 mm |
| CC(C)(C)C(c1ccccc1)(c1ccccc1)n1ccnc1 [compound 065] |  |  |  |  |  |  |  |  | 26 mm | 28 mm | 25 mm | 26 mm | 25 mm | 28 mm | 26 mm | 28 mm | 14 mm | 25 mm | 21 mm | 25 mm | zone of inhibition at 100 µg/mL ([4]; BW (Baumwollköper)): 25 mm; zone of inhibition at 200 µg/mL ([4]; BW (Baumwollköper)): 29 mm; zone of inhibition at 100 µg/mL ([4]; NY (Nylon)): 18 mm; zone of inhibition at 200 µg/mL ([4]; NY (Nylon)): 23 mm; zone of inhibition at 100 µg/mL ([4]; WO (Wolle)): 23 mm; zone of inhibition at 200 µg/mL ([4]; WO (Wolle)): 28 mm |
